“And” between values parts separate entries of the source, which are not always exact repeats. Identical values can stand only once.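 How tested: cells in 96-well plates exposed to compound for 48 hours at five concentrations. At the GI50, growth is halved. At the TGI there is no net growth.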
How the values were obtained:
Assay in all cases: NCI anticancer screen, dose series, 48 h
LOX IMVI melanoma = test system: LOX IMVI melanoma
SF-268 CNS = test system: SF-268 CNS
SF-295 CNS = test system: SF-295 CNS
UACC-62 melanoma = test system: UACC-62 melanoma
HCC-2998 colon = test system: HCC-2998 colon
T-47D breast = test system: T-47D breast
HCT-116 colon = test system: HCT-116 colon
OVCAR-4 ovarian = test system: OVCAR-4 ovarian
UACC-257 melanoma = test system: UACC-257 melanoma
NCI-H226 lung = test system: NCI-H226 lung

SMILES	GI50 (LOX IMVI melanoma)	TGI (LOX IMVI melanoma)	GI50 (SF-268 CNS)	TGI (SF-268 CNS)	GI50 (SF-295 CNS)	TGI (SF-295 CNS)	GI50 (UACC-62 melanoma) [µM]	TGI (UACC-62 melanoma)	GI50 (HCC-2998 colon)	TGI (HCC-2998 colon)	GI50 (T-47D breast)	TGI (T-47D breast)	GI50 (HCT-116 colon)	TGI (HCT-116 colon)	GI50 (OVCAR-4 ovarian)	TGI (OVCAR-4 ovarian)	GI50 (UACC-257 melanoma)	TGI (UACC-257 melanoma)	GI50 (NCI-H226 lung)	TGI (NCI-H226 lung)
CN[C@@H](C)C(=O)N[C@H]1CN(C(=O)CC(C)C)CC[C@H]2CC[C@@H](C(=O)NC(c3ccccc3)c3ccccc3)N2C1=O	> 100 µM	> 100 µM	> 100 µM	> 100 µM	> 100 µM	> 100 µM	> 100	> 100 µM	> 100 µM	> 100 µM	> 100 µM	> 100 µM	> 100 µM	> 100 µM	0.664 µM	8.42 µM	> 74.3 µM	> 100 µM	> 100 µM	> 100 µM
O=c1[nH]cc(/C=N\Nc2ccccc2)c(=O)[nH]1	–	> 100 µM	–	> 100 µM	–	> 100 µM	–	> 100 µM	–	> 100 µM	–	> 100 µM	–	> 100 µM	–	> 100 µM	–	> 100 µM	–	> 100 µM
CNC(=O)c1c(NC(=O)c2ccc(C(F)(F)F)cc2)sc2c1CCC(=O)C2	0.361 µM	2.27 µM	0.995 µM	> 37.9 µM	0.821 µM	2.97 µM	0.617	2.23 µM	1.09 µM	4.12 µM	0.305 µM	2.38 µM	0.188 µM	1.4 µM	0.604 µM	1.92 µM	1.73 µM	6.22 µM	1.82 µM	5.35 µM
C#CCSc1n[nH]c(-c2ccco2)n1	–	> 100 µM	–	> 100 µM	–	> 100 µM	–	> 100 µM	–	> 100 µM	–	> 100 µM	–	> 100 µM	–	> 100 µM	–	> 100 µM	–	> 100 µM
CCCOc1ccc(-c2nc(-c3ccc(N=Cc4ccc(N(CCOS(C)(=O)=O)CCOS(C)(=O)=O)cc4C)cc3)cs2)cc1	–	66.8 µM	–	77.8 µM	–	45.5 µM	–	> 69.6 µM	–	26.8 µM	–	> 92.1 µM	–	> 85.2 µM	–	81.9 µM	–	> 100 µM	–	84.5 µM
O=C(N/N=C/c1ccccc1O)C(O)(c1ccccc1)c1ccccc1	5.09 µM	> 100 µM	8.69 µM	> 100 µM	4.5 µM	> 100 µM	15	> 100 µM	17.4 µM	> 100 µM	8.02 µM	> 100 µM	2.95 µM	> 100 µM	3.43 µM	> 100 µM	5.99 µM	> 100 µM	> 100 µM	> 100 µM
C[C@H](N)C(=O)N[C@@H]1[C@H]2C(=C(O)C[C@@H](O)[C@@H]2O)C(=O)O[C@]1(C)C(Cl)Cl	0.106 µM	0.454 µM and 0.675 µM	0.15 µM	2.8 µM and 2.59 µM	–	1.31 µM	0.27	1.66 µM and 1.1 µM	0.224 µM	0.745 µM and 1.16 µM	0.8 µM	7.69 µM and 4.18 µM	0.205 µM	1.85 µM and 1.33 µM	0.263 µM	3.03 µM and 0.841 µM	0.096 µM	1.16 µM and 1.94 µM	0.266 µM	1.34 µM and 1.06 µM
CN1CCC(CNc2ccc3ncc(-c4cccc(OC(F)(F)F)c4)n3n2)CC1	1.56 µM and 1.47 µM	3.2 µM and 2.85 µM	1.57 µM and 3.2 µM	3.64 µM and > 10 µM	1.67 µM and 1.55 µM	3.48 µM and 3.87 µM	1.76	3.66 µM	1.57 µM and 1.45 µM	3.15 µM and 3.32 µM	1.44 µM and 1.28 µM	3.01 µM and 3.56 µM	1.83 µM and 1.7 µM	3.94 µM and 4.33 µM	2.39 µM and 3.81 µM	8.21 µM and > 10 µM	1.51 µM and 1.44 µM	3.05 µM and 2.8 µM	1.82 µM and 3.62 µM	8.49 µM and > 10 µM
O=C1/C=C/[C@@H](O)[C@@H]2C[C@@H](O)C[C@H]2/C=C/CCC[C@H](CCc2ccc(C(F)(F)F)cc2)O1	0.161 µM	0.423 µM	0.371 µM	> 100 µM	0.188 µM	47.8 µM	0.169	17.3 µM	0.238 µM	3.87 µM	0.318 µM	59.8 µM	0.251 µM	0.607 µM	0.198 µM	2.78 µM	0.182 µM	> 40.2 µM	0.0539 µM	0.513 µM
COc1ccc(-c2nsc3c2NC(=O)CC3c2ccc(F)cc2)cc1 (stereo unspecified)	7.18 µM	> 100 µM	10.2 µM	> 100 µM	4.08 µM	> 29.1 µM	4.66	> 100 µM	> 21.7 µM	> 100 µM	4.64 µM	> 100 µM	3.95 µM	> 100 µM	12.7 µM	> 100 µM	16.6 µM	> 100 µM	8.67 µM	> 100 µM
CC1=C(C(=O)Nc2ccccc2C)C(c2ccc(C3C(C(=O)Nc4ccccc4C)=C(C)NC(C)=C3C(=O)Nc3ccccc3C)cc2)C(C(=O)Nc2ccccc2C)=C(C)N1	–	3.63 µM	–	7.18 µM	–	17.1 µM	–	4.65 µM	–	9.31 µM	–	20.5 µM	–	7.17 µM	–	22.1 µM	–	9.84 µM	–	28.7 µM
CCN1C(=O)N(CC)C2C1NN=c1s/c(=C\c3ccccc3F)c(=O)n12 (stereo unspecified)	0.0411 µM	> 100 µM	0.0679 µM	> 67.4 µM	0.0242 µM	> 49.8 µM	0.0505	> 80.4 µM	0.0334 µM	> 58.8 µM	35.7 µM	> 100 µM	0.0333 µM	14.3 µM	0.0668 µM	> 100 µM	2.11 µM	> 100 µM	11.2 µM	> 100 µM
O=C1/C(=C\c2ccc(F)cc2)CN(C(=O)c2ccc([N+](=O)[O-])cc2)C/C1=C\c1ccc(F)cc1	0.373 µM	1.47 µM	3.41 µM	> 100 µM	2.99 µM	16.4 µM	1.98	6.27 µM	1.95 µM	3.76 µM	6.61 µM	> 100 µM	0.21 µM	0.448 µM	3.61 µM	> 100 µM	4.17 µM	28.1 µM	–	> 21.4 µM
Cc1ncc(C(=O)Nc2ccc(CN3CCN(C)CC3)c(C(F)(F)F)c2)cc1C#Cc1cnc(N)c2cnccc12	0.0335 µM	0.158 µM	0.0791 µM	11.7 µM	0.309 µM	14.8 µM	0.019	0.105 µM	0.133 µM	15.2 µM	0.317 µM	> 32.8 µM	0.0434 µM	1.23 µM	0.0447 µM	4.25 µM	0.0689 µM	1.29 µM	0.175 µM	3.09 µM
CO/[N+]([O-])=C\C(=O)N/C=C/C(=O)O	–	> 100 µM	–	> 100 µM	–	> 100 µM	–	> 100 µM	–	> 100 µM	–	> 100 µM	–	> 100 µM	–	> 100 µM	–	> 100 µM	–	> 100 µM
O=C(CCCCCCCn1cc(-c2cccnc2)nn1)Nc1ccccc1-c1ccccc1	4.05 µM	> 100 µM	20.4 µM	> 100 µM	0.403 µM	–	9.68	47.3 µM	0.385 µM	> 61.8 µM	1.44 µM	28 µM	0.0361 µM	> 32.9 µM	10.9 µM	> 100 µM	7.75 µM	24.9 µM	14.5 µM	50.2 µM
Cc1cccc(-c2nn3c(c2-c2ccnc4ccc(C(N)=O)cc24)CCC3)n1	> 100 µM	> 100 µM	> 100 µM	> 100 µM	> 100 µM	> 100 µM	78.8	> 100 µM	> 100 µM	> 100 µM	57.6 µM	> 100 µM	> 100 µM	> 100 µM	> 100 µM	> 100 µM	> 100 µM	> 100 µM	> 100 µM	> 100 µM
COc1cccc(Cn2c(-c3nonc3N)nc3ccccc32)c1	0.547 µM	> 100 µM	0.844 µM	> 100 µM	0.307 µM	–	0.493	> 100 µM	1.47 µM	> 100 µM	0.475 µM	> 100 µM	0.461 µM	> 100 µM	2.26 µM	> 65.9 µM	0.314 µM	> 100 µM	1.16 µM	> 22 µM
COc1ccccc1-c1cc(/C=C2\C(=O)Nc3ncc(Br)cc32)cc(Br)c1O	10.5 µM	> 25 µM	11.1 µM	> 25 µM	10.5 µM	> 25 µM	6.91	> 25 µM	> 25 µM	> 25 µM	10.6 µM	> 25 µM	10.2 µM	> 25 µM	8.96 µM	> 25 µM	16.4 µM	> 25 µM	12.5 µM	> 25 µM
Fc1ccc(-c2nn3c(CNc4ccccc4)nnc3s2)cc1	29.4 µM	96.7 µM	64.3 µM	> 100 µM	20.5 µM	59.3 µM	18.4	53.7 µM	0.585 µM	25 µM	29.6 µM	> 100 µM	26.5 µM	> 100 µM	90.7 µM	> 100 µM	36.2 µM	> 100 µM	45.5 µM	> 100 µM
Sc1ccc2ccccc2c1CNCc1ccccc1	–	18.6 µM	–	30.3 µM	–	47.3 µM	–	28.6 µM	–	> 100 µM	–	> 100 µM	–	33.4 µM	–	40.6 µM	–	> 100 µM	–	12.3 µM

From PubChem BioAssay (NCI)
